According to ChEMBL document CHEMBL1201862, “PubChem BioAssay data set” (2004):
Activity calls are given as the source filed them.

Experiments:
[1] = target: T1, Tyrosine-protein phosphatase non-receptor type 7 (Homo sapiens, UniProt P35236); experiment: HePTP tyrosine phosphatase activity blockers – biochemical, absorbance, leukemia target, primary screen (AID 521); assay type: functional
T1 sequence (P35236 whole entry): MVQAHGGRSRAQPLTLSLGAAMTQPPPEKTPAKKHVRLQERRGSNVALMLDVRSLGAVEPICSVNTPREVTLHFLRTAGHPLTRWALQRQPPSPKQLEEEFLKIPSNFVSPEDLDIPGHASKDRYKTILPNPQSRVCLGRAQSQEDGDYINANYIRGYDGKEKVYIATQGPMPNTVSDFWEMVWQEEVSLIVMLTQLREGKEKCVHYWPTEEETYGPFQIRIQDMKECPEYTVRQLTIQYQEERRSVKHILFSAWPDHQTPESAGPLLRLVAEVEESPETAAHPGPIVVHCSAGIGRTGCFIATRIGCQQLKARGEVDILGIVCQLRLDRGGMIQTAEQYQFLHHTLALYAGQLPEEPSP

[2] = Luminescence Cell-Based Dose Response HTS to Identify Activators of Luciferase Translation or Activity in H4 […] Cells. [Related pubchem assays: 1829 (Project Summary), 1814 (Primary HTS)]; assay type: functional
[3] = Luminescence Cell-Based Dose Response to Identify Activators of Luciferase Translation or Activity in H4-C Neuroglioblastoma Cells. [Related pubchem assays: 1829 (Project Summary), 1814 (Primary HTS)]; assay type: functional
[4] = Luminescence Cell-Based Dose Response to Identify Activators of 5'UTR Stem-Loop Driven Prion Protein mRNA Translation in H4-C Neuroglioblastoma Cells. [Related pubchem assays: 1829 (Project Summary), 1814 (Primary HTS)]; assay type: functional
[5] = Luminescence Cell-Based Dose Confirmation to Identify Activators of 5'UTR Stem-Loop Driven Alpha-Synuclein mRNA Translation in H4 Neuroglioblastoma Cells. [Related pubchem assays: 1829 (Project Summary), 1814 (Primary HTS)]; assay type: functional
[6] = Luminescence Cell-Based Dose Confirmation HTS to Identify Activators of 5'UTR Stem-Loop Driven Alpha-Synuclein mRNA Translation in H4 Neuroglioblastoma Cells. [Related pubchem assays: 1829 (Project Summary), 1814 (Primary HTS)]; assay type: functional
Estrogen receptor beta [7] = target: T2, Estrogen receptor beta (Homo sapiens, UniProt Q92731); experiment: blockers of SRC-3 recruitment to ERβ – biochemical, ELISA, streptavidin-HRP readout, orthogonal assay, confirmation (AID 1060)
Bcl-2-like protein 1 = Bcl-2-like protein 1 (Homo sapiens, UniProt Q07817); experiment: blockers of BCLXL peptide binding – biochemical, fluorescence polarization, 1536-well, selectivity assay for MCL1 inhibitor project, dose response (AID 2218)
[8] = target: T3, Voltage-gated N-type calcium channel alpha-1B subunit/Amyloid beta A4 precursor protein-binding family A member 1 (Homo sapiens, UniProt Q00975+Q02410); experiment: disruptors of Mint-PDZ/N-type channel peptide interaction – biochemical, HTRF, set 2, SAR follow-up (AID 434980); assay type: functional
[9] = target: T4, Induced myeloid leukemia cell differentiation protein Mcl-1 (Homo sapiens, UniProt Q07820); assay type: functional
SUMO E1/E2 = SUMO E1/E2 (Homo sapiens, UniProt P63279+Q9UBE0+Q9UBT2); experiment: SAR analysis of SUMOylation using HTRF in an in-Vitro dose response assay. [Related pubchem assays (depositor defined):AID2006, AID2011, AID2018, AID2069, AID2658]; assay type: functional
Genome polyprotein = Genome polyprotein (Hepatitis C virus, UniProt Q2Q167); experiment: disruption of hepatitis C core self-association – biochemical, TR-FRET, dose response (AID 2159); set-up: species or system Hepacivirus hominis;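 also: blocks dimerization of HCV core protein measured by TR-FRET between tagged core106 pairs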
[10] = target: T3, Voltage-gated N-type calcium channel alpha-1B subunit/Amyloid beta A4 precursor protein-binding family A member 1; experiment: disruptors of Mint-PDZ/N-type channel peptide interaction – biochemical, HTRF, SAR follow-up (AID 2489); assay type: functional
Estrogen receptor beta [11] = target: T2, Estrogen receptor beta
[12] = A Cell Based Secondary Assay To Explore Cytotoxicity of Compounds that Sensitize Mycobacterium Tuberculosis to Beta-Lactam Antibiotics.; assay type: functional
[13] = target: T4, Induced myeloid leukemia cell differentiation protein Mcl-1; experiment: blockers of MCL1 binding to BIM peptide – biochemical, fluorescence polarization, BIM-BH3 peptide, 1536-well, dose response (AID 2217)
Bcl-2-like protein 10 = Bcl-2-like protein 10 (Homo sapiens, UniProt Q9HD36); experiment: Bcl-B/TR3 peptide binding disruption – biochemical, fluorescence polarization, FITC-TR3 peptide, selectivity assay for Bfl-1 inhibitor project, primary screen (AID 748);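 also: fluorescence polarization from a fluorescein-labelled TR3 peptide binding purified Bcl-B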
[14] = A High Throughput Confirmatory Assay used to Identify Novel Compounds that Inhibit Mycobacterium Tuberculosis in the absence of Glycerol.; assay type: functional
[15] = luciferase reporter signal suppression in cells – H4 neuroglioma cells, luminescence, dose response (AID 1990); assay type: functional, cell-based
[16] = alpha-synuclein stem-loop luciferase translation blockers – H4 neuroglioma cells, luminescence, confirmation (AID 1988); assay type: functional, cell-based
[17] = Luminescence Cell-Based Dose Response HTS to Identify Inhibitors of 5'UTR Stem-Loop Driven Prion Protein mRNA Translation in H4 Neuroglioblastoma Cells. [Related pubchem assays: 1827 (Project Summary), 1813 (Primary HTS)]; assay type: functional
[18] = microbe, parasite or virus in culture; assay type: functional; details: Mycobacterium tuberculosis
[19] = target: T5, Heat shock factor protein 1 (Mus musculus, UniProt P38532); experiment: decrease of HSF1-responsive luciferase luminescence – cell-based, NIH3T3, dose retest, confirmation (AID 2382); assay type: functional;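 also: NIH3T3 fibroblasts with HSF1-driven luciferase reporter stressed by proteasome inhibitor MG132; luminescence from HSF1-driven luciferase expression after 8 hours of MG132 stress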
T5 sequence (P38532 whole entry): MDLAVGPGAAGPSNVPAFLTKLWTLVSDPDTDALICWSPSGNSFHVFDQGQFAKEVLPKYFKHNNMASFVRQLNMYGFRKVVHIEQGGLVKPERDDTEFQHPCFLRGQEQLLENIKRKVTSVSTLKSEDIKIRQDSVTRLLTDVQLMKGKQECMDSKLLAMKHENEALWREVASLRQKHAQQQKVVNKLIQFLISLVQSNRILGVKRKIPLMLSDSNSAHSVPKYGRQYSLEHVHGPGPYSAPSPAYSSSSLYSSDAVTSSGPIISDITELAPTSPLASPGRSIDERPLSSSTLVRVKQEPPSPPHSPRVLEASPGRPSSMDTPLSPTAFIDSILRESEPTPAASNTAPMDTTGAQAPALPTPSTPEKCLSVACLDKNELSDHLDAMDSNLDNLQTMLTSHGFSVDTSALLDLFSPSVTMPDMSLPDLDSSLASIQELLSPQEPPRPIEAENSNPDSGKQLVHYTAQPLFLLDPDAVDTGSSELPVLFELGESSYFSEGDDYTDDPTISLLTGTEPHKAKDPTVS

[20] = target: T6, Microphthalmia-associated transcription factor (Homo sapiens, UniProt O75030); experiment: reducers of TRPM1 reporter luminescence, concentration series – cell-based, SK-MEL-5, cherry-picked, set 3, MITF inhibitor project, dose response (AID 493073); assay type: functional;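 also: SK-MEL-5 melanoma cells with luciferase driven by the MITF target TRPM1 promoter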
T6 sequence (O75030 whole entry): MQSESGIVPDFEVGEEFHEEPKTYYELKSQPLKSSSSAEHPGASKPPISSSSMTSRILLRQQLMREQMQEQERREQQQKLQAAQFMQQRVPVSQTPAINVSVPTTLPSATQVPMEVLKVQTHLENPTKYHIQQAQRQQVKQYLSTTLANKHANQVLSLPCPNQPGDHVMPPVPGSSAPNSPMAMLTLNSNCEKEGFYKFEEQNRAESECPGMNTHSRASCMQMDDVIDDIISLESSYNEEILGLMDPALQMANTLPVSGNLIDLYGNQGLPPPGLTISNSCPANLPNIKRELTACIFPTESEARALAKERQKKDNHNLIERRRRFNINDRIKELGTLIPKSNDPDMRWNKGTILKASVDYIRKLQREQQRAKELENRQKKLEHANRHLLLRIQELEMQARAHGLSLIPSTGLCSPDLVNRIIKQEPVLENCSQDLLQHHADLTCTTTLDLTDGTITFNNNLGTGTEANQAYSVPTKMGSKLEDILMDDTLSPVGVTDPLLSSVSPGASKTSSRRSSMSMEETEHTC

[21] = target: Heat shock protein HSP 90-alpha (Homo sapiens, UniProt P07900); experiment: Luminescence-based dose response biochemical high throughput screening assay for inhibitors of the Heat Shock Protein 90 (HSP90). [Related pubchem assays: 1831 (Summary AID.), 1846 (Confirmation screen.), 1789 (Primary screen.)]
Prothrombin = Prothrombin (Homo sapiens, UniProt P00734); experiment: Thrombin 1536 HTS Dose Response Confirmation. [Related pubchem assays: 1046 (Thrombin 1536 HTS; hits were confirmed in this assay)]; assay type: functional
Mucolipin-3 = Mucolipin-3 (Homo sapiens, UniProt Q8TDD5); experiment: Dose response cell-based high-throughput screening assay for agonists of the transient receptor potential channel ML3 (TRPML3). [Related pubchem assays: 1526, 1424, 1448 ]; assay type: functional
Ion channel NompC = Ion channel NompC (Danio rerio, UniProt Q7T1G6); experiment: Fluorescence counterscreen assay for TRPML3 agonists: dose response cell-based high-throughput screening assay to identify agonists of the transient receptor potential channel N1 (TRPN1). [Related pubchem assays: 1526, 1424, 1448 ]; assay type: functional

T4 sequence (Q07820 whole entry): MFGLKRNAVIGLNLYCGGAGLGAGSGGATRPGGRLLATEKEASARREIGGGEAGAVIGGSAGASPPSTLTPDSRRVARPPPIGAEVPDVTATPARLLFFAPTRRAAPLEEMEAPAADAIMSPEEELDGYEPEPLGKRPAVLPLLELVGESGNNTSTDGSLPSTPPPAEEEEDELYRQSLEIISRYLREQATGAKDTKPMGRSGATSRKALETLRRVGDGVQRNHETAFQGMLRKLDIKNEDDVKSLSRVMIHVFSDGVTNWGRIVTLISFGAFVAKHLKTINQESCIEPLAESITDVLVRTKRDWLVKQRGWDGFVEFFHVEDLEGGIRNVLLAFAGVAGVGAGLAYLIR
T2 sequence (Q92731 whole entry): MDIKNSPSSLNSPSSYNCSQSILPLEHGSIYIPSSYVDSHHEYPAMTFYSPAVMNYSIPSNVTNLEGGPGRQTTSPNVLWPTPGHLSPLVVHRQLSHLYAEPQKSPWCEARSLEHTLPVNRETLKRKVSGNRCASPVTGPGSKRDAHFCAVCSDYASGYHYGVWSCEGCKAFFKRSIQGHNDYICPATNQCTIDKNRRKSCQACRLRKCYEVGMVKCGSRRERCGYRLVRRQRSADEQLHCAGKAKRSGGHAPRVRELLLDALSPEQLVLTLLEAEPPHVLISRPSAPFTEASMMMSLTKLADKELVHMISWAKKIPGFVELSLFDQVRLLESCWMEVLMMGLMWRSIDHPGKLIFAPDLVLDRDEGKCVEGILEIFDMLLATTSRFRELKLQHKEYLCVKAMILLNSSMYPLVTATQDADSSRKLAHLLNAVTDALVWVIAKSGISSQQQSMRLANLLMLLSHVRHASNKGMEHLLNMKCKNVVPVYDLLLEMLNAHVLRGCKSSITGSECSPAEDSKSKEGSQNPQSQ
T3 sequence (Q00975 whole entry): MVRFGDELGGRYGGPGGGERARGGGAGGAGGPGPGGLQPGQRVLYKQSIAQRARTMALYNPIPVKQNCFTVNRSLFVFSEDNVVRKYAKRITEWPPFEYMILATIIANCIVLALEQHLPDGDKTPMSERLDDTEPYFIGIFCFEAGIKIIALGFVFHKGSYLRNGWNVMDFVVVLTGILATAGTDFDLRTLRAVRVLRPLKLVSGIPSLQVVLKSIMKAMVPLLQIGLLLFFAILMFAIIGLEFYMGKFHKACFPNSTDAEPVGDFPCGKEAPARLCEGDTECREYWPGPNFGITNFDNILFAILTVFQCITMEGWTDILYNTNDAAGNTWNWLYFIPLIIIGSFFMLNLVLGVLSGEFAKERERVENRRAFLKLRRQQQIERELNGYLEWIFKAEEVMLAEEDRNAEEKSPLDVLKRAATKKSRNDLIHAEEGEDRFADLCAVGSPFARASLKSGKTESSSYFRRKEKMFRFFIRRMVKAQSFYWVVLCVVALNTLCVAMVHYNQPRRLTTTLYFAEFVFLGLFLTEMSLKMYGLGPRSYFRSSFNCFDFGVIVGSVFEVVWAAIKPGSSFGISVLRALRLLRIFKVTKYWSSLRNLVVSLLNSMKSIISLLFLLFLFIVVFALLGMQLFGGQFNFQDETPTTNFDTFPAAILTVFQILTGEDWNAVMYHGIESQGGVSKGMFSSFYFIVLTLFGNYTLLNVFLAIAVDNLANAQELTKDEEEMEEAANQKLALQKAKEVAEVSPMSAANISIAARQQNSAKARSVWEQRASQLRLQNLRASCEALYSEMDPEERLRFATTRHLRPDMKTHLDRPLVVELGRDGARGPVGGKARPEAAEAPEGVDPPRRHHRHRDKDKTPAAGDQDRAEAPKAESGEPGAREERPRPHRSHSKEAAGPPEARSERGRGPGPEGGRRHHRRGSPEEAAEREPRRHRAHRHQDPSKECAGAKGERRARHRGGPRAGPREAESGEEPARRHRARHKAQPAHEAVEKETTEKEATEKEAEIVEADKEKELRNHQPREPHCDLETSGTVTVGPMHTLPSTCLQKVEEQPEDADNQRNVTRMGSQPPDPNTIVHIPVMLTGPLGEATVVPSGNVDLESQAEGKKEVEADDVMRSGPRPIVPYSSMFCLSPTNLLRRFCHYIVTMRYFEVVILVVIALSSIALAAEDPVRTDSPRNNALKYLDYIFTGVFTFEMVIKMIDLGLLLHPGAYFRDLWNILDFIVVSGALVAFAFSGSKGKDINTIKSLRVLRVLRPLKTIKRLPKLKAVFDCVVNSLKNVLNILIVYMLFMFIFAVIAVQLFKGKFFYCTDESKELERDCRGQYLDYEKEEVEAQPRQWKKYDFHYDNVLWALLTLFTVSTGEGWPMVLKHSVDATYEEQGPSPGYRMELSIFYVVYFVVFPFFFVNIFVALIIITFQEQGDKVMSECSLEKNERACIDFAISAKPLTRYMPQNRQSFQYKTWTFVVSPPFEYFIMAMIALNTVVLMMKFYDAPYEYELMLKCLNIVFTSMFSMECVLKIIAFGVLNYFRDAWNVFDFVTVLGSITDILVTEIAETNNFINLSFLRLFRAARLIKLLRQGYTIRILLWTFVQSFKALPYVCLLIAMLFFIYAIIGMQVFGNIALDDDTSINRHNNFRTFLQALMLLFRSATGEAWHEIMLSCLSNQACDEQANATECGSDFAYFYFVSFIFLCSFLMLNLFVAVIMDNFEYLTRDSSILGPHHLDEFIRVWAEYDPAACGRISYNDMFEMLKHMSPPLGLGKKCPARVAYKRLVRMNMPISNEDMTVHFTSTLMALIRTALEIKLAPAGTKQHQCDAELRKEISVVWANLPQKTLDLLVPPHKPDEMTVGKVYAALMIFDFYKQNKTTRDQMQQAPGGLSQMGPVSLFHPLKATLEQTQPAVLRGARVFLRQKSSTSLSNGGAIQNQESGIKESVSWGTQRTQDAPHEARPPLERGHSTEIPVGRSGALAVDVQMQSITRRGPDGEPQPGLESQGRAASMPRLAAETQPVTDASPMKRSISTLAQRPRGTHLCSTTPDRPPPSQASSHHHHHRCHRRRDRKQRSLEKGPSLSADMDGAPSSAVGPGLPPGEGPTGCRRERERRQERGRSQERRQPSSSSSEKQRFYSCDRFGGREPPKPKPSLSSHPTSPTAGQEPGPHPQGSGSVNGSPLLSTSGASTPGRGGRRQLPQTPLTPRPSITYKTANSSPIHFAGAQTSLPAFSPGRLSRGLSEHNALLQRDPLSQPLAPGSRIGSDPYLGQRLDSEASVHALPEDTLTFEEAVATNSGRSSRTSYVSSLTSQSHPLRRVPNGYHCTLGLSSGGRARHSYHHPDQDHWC
T3 sequence (Q02410 whole entry): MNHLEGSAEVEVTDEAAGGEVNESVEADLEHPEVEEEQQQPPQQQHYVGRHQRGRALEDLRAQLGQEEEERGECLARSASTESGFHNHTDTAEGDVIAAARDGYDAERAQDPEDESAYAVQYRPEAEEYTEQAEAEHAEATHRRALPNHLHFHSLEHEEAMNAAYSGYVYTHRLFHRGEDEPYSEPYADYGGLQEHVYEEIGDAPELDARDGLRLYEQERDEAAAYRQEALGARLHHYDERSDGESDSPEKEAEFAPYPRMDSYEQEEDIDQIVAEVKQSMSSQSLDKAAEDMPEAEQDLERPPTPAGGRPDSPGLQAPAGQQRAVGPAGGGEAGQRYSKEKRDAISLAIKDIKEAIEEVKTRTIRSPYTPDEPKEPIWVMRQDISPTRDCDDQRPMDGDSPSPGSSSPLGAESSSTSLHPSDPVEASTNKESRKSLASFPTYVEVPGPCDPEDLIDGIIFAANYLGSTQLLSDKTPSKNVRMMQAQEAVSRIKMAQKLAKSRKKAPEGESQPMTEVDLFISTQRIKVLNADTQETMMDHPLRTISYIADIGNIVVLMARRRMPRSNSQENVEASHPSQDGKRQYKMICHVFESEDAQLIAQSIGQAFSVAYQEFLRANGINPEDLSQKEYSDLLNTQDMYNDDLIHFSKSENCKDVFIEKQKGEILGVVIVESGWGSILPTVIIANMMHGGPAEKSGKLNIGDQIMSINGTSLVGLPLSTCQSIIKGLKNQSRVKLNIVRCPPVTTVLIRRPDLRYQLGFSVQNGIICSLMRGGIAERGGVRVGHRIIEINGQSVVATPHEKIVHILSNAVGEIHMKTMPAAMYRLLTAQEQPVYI
Chain of Mucolipin-3 (Q8TDD5 whole entry): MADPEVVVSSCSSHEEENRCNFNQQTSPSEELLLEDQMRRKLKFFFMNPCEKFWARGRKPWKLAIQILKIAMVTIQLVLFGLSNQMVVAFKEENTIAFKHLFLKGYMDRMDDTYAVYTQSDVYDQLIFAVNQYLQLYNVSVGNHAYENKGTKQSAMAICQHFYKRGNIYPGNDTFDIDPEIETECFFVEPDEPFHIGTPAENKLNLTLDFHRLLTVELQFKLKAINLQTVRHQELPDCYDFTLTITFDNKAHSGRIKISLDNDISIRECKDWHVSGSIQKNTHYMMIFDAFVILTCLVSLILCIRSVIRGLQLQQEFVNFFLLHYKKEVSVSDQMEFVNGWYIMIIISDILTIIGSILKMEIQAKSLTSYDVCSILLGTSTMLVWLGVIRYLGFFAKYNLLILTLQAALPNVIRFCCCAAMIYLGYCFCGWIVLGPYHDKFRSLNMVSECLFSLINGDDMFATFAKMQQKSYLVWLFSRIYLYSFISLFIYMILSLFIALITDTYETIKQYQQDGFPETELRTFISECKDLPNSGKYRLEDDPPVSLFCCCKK
Chain of Bcl-2-like protein 10 (Q9HD36 whole entry): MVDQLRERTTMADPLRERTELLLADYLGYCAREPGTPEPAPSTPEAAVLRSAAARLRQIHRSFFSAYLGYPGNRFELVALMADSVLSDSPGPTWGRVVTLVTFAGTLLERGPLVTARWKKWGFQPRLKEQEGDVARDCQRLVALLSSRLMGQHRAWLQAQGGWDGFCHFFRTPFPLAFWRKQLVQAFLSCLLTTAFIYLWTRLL
Chain of Genome polyprotein (Q2Q167 whole entry): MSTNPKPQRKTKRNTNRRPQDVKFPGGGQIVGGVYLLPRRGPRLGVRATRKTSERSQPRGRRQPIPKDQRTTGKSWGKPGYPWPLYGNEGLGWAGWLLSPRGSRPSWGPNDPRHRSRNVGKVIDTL

## O=C(Nc1cc(C(F)(F)F)ccc1Cl)C1CCN(c2nnc(-n3cccc3)s2)CC1
[1]
  IC50: > 100 µM (not active)

## O=C(NC1CCCCCC1)c1ccc(CN2CCOCC2)cc1
[2]
  EC50: 17.5 µM (active)
[3]
  EC50: 0.67 µM (active)
[4]
  EC50: 0.889 µM (active)
[5]
  EC50: 0.406 µM (active)
[6]
  EC50: < 0.1 µM (active)

## O=C(OCC(=O)N1CCN(C(=O)c2ccco2)CC1)c1cc(-c2ccco2)nc2ccccc12
Estrogen receptor beta [7]
  IC50: > 50 µM (not active)
Bcl-2-like protein 1
  IC50: > 109 µM (not active)
[8]
  IC50: 2.86 µM (active)
[9]
  IC50: 3.96 µM (active)
SUMO E1/E2
  IC50: 1.93 µM (active)
Genome polyprotein
  IC50: > 49.8 µM (not active)
[10]
  IC50: 5.92 µM (active)
Estrogen receptor beta [11]
  IC50: < 1.56 µM (active)
[12]
  CC50: > 40 µM (active)
[13]
  IC50: 6.8 µM (active)
Bcl-2-like protein 10
  IC50: 12 µM (active)

## CC(C)CNc1nnnc2c1sc1nc(N3CCOCC3)c3c(c12)CC(C)(C)SC3
[14]
  IC50: > 100 µM (active)
[15]
  EC50: 19.2 µM (active)
[16]
  EC50: 14.3 µM (active)
[17]
  EC50: 35.1 µM (active)
[18]
  CC50: > 40 µM (active)

## Cc1ccc2nc(NC(=O)CSCC(=O)OCC(=O)c3ccccc3)sc2c1
[19]
  EC50: 1.05 µM (active)
[20]
  AC50: 5.78 µM (active)
[21]
  IC50: 5.17 µM (active)
Prothrombin
  IC50: 0.0897 µM (active)

## COc1ccc(C(C(=O)NC2CCCC2)N(Cc2ccccc2)C(=O)c2nsc(Cl)c2Cl)cc1 (stereo not drawn)
Mucolipin-3
  EC50: > 29.9 µM (not active)
Ion channel NompC
  EC50: > 29.9 µM (not active)
